Reference: patent US9938262B2, “Benzamides” (Merck Patent GmbH, priority 2011, dated 2018)

Target: T1, FSHR (Homo sapiens, UniProt P23945)
T1 construct: expressed in transfected cells; host or cells: CHO (Cho-FSHR-LUC-1-1-43)
Experiment: EC50 of cyclic AMP production in CHO FSHR cells + EC20 FSH (Assay A)
Assay type: cell-based
Conditions: Table 1; for EC50: CHO FSHR cells + EC20 FSH, read-out: Assay A EC50 of cyclic AMP production; for activation at 5 µM: 1 h, effect relative to maximum response of the FSH standard
Procedure, shortened: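 cAMP HTRF ratio (665/620 nm) read after 1 h, 37 °C exposure of CHO-FSHR cells to compound in presence of EC20 FSH ([…]) and IBMX 200 μM. Responses given relative to FSH standard maximum; EC50 derived.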

T1 sequence (P23945 18-695): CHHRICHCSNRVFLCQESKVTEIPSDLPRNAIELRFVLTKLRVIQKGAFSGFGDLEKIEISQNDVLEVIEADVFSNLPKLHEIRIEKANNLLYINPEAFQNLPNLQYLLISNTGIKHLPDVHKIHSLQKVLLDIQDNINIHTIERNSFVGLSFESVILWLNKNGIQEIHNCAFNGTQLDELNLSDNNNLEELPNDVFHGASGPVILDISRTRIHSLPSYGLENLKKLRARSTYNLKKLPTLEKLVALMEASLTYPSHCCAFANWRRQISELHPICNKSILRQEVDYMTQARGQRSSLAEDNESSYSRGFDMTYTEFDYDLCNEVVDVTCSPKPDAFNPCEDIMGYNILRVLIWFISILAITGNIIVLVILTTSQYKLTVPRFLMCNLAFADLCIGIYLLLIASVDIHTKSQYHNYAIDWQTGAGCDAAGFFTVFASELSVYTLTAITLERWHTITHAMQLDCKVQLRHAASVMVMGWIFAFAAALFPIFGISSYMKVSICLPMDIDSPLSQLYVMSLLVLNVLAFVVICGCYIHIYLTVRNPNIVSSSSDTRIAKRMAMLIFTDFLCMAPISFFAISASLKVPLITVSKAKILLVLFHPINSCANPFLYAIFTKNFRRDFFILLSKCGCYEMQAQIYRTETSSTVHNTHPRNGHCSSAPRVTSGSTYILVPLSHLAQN
T1 sequence (P01215 25-116 partner): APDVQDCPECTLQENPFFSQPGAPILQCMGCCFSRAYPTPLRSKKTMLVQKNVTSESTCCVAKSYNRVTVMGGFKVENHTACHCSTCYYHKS
T1 sequence (P01225 19-129 partner): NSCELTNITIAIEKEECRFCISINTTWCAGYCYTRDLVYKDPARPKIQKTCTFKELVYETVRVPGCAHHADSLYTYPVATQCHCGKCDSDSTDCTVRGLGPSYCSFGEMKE

SMILES	EC50 [nM]	activation at 5 µM [%]
Cc1ncc(C(=O)Nc2cc(C(=O)NCCCN3CCCC3=O)ccc2N2CCN(c3ccccc3C)CC2)s1 [Compound 198]	100 to 1000	–
CCc1ncc(C(=O)Nc2cc(C(=O)NCCCN3CCCC3=O)ccc2N2CCN(c3ccccc3C)CC2)s1 [Compound 200]	1000 to 10000	–
Cc1ccccc1N1CCN(c2ccc(C(=O)NCCCN3CCCC3=O)cc2NC(=O)c2sc(Cl)nc2C)CC1 [Compound 201]	> 10000	–
Cc1ccccc1N1CCN(c2ccc(C(=O)NCCCN3CCCC3=O)cc2NC(=O)c2nc3ccccc3s2)CC1 [Compound 202]	1000 to 10000	–
Cc1cnc(C(=O)Nc2cc(C(=O)NCCCN3CCCC3=O)ccc2N2CCN(c3ccccc3C)CC2)s1 [Compound 205]	100 to 1000	–
Cc1ccccc1N1CCN(c2ccc(C(=O)NCCCN3CCCC3=O)cc2NC(=O)c2coc(C(C)C)n2)CC1 [Compound 208]	1000 to 10000	–
Cc1ccc(C(=O)Nc2cc(C(=O)NCCCn3ccnc3)ccc2N2CCN(c3ccccc3C)CC2)o1 [Compound 210, 5-Methyl-furan-2-carboxylic acid [5-(3-imidazol-1-yl-propylcarbamoyl)-2-(4-o-tolyl-piperazin-1-yl)-phenyl]-amide]	1000 to 10000	–
C=CC(=O)NCCCNC(=O)c1ccc(N2CCN(c3ccccc3C)CC2)c(NC(=O)c2ccco2)c1 [Compound 212]	100 to 1000	–
Cc1ccccc1N1CCN(c2ccc(C(=O)NCCCN3CCCC3=O)cc2NC(=O)c2csc(C(C)C)c2)CC1 [Compound 213]	> 10000	–
Cc1ccc(C(=O)Nc2cc(C(=O)NCCN3CCN(C(=O)OC(C)(C)C)CC3)ccc2N2CCN(c3ccccc3C)CC2)o1 [Compound 214]	1000 to 10000	–
Cc1ccccc1N1CCN(c2ccc(C(=O)NCCCN3CCCC3=O)cc2NC(=O)c2ccc(C(N)=O)o2)CC1 [Compound 216, Furan-2,5-dicarboxylic acid 2-amide 5-{[5-[3-(2-oxo-pyrrolidin-1-yl)-propylcarbamoyl]-2-(4-o-tolyl-piperazin-1-yl)-phenyl]-amide}]	> 10000	–
Cc1ccc(C(=O)Nc2cc(C(=O)NCc3cccnc3)ccc2N2CCN(c3ccccc3C)CC2)o1 [Compound 218, 5-Methyl-furan-2-carboxylic acid [5-[(pyridin-3-ylmethyl)-carbamoyl]-2-(4-o-tolyl-piperazin-1-yl)-phenyl]-amide]	100 to 1000	–
Cc1ccccc1N1CCN(c2ccc(C(=O)NCCCN3CCCC3=O)cc2NC(=O)CC2CC2)CC1 [Compound 219, 3-(2-Cyclopropyl-acetylamino)-N-[3-(2-oxo-pyrrolidin-1-yl)-propyl]-4-(4-o-tolyl-piperazin-1-yl)-benzamide]	1000 to 10000	–
CCCc1cc(C(=O)Nc2cc(C(=O)NCCCN3CCCC3=O)ccc2N2CCN(c3ccccc3C)CC2)co1 [Compound 220]	1000 to 10000	–
COc1ccc(C(=O)Nc2cc(C(=O)NCCCN3CCCC3=O)ccc2N2CCN(c3ccccc3C)CC2)nc1 [Compound 221]	100 to 1000	–
Cc1ccccc1N1CCN(c2ccc(C(=O)N[C@H]3O[C@@H](CO)[C@H](O)[C@@H]3O)cc2NC(=O)c2ccco2)CC1 [Compound 222]	100 to 1000	–
C=CC(=O)NCCNC(=O)c1ccc(N2CCN(c3ccccc3C)CC2)c(NC(=O)c2ccco2)c1 [Compound 225]	100 to 1000	–
Cc1ccccc1N1CCN(c2ccc(C(=O)NCCCN3CCCC3=O)cc2NS(=O)(=O)c2cccc3ncccc23)CC1 [Compound 229]	–	41
Cc1ccccc1N1CCN(c2ccc(C(=O)NCCC3C[C@H]4CC[C@@H]3C4)cc2NC(=O)c2coc(C3CC3)n2)CC1 (some centres unmarked) [Compound 231]	100 to 1000	–
Cc1ccccc1N1CCN(c2ccc(C(=O)NCCCc3cn[nH]c3)cc2NC(=O)c2coc(C3CC3)n2)CC1 [Compound 232]	100 to 1000	–
Cc1ccccc1N1CCN(c2ccc(C(=O)NCCC(=O)N3CCCC3)cc2NC(=O)c2coc(C3CC3)n2)CC1 [Compound 234]	1000 to 10000	–

SMILES	EC50 [nM]	activation at 5 µM [%]
Cc1ccccc1N1CCN(c2ccc(C(=O)NCc3ccc(Cl)cc3)cc2NC(=O)c2coc(C3CC3)n2)CC1 [Compound 235]	1000 to 10000	–
Cc1ccccc1N1CCN(c2ccc(C(=O)NCc3cccc(-c4c[nH]cn4)c3)cc2NC(=O)c2ccco2)CC1 [Compound 236]	100 to 1000	–
Cc1ccccc1N1CCN(c2ccc(C(=O)NCc3cccc(-c4ccnn4C)c3)cc2NC(=O)c2ccco2)CC1 [Compound 237]	100 to 1000	–
Cc1ccccc1N1CCN(c2ccc(C(=O)NCc3ccccc3C(N)=O)cc2NC(=O)c2ccco2)CC1 [Compound 238]	100 to 1000	–
Cc1ccccc1N1CCN(c2ccc(C(=O)NCCCN3CCCC3=O)cc2NS(=O)(=O)Cc2cccc3cccnc23)CC1 [Compound 239]	–	43
Cc1ccccc1N1CCN(c2ccc(C(=O)NCc3cccc(-c4ccn(C)n4)c3)cc2NC(=O)c2ccco2)CC1 [Compound 240]	100 to 1000	–
Cc1ccccc1N1CCN(c2ccc(C(=O)NCCCN3CCCC3=O)cc2Nc2ncccn2)CC1 [Compound 242, N-[3-(2-Oxo-pyrrolidin-1-yl)-propyl]-3-(pyrimidin-2-ylamino)-4-(4-o-tolyl-piperazin-1-yl)-benzamide]	1000 to 10000	–
Cc1cccc(N2CCN(c3ccc(C(=O)NCCCN4CCCC4=O)cc3NC(=O)c3ccc(C)o3)CC2)c1 [Compound 243]	1000 to 10000	–
Cc1ccc(N2CCN(c3ccc(C(=O)NCCCN4CCCC4=O)cc3NC(=O)c3coc(C4CC4)n3)CC2)cc1 [Compound 245]	–	12
Cc1ccccc1N1CCN(c2ccc(C(=O)NCc3ccc(C(N)=O)cc3)cc2NC(=O)c2ccco2)CC1 [Compound 247]	< 100	–
Cc1ccccc1N1CCN(c2ccc(C(=O)NCc3cccc(-c4nnn[nH]4)c3)cc2NC(=O)c2ccco2)CC1 [Compound 248]	< 100	–
Cc1ccc(N2CCN(c3ccc(C(=O)NCCCN4CCCC4=O)cc3NC(=O)c3coc(C4CC4)n3)CC2)cc1C [Compound 252]	–	14
Cc1ccc(C(=O)Nc2cc(C(=O)NCCCN3CCCC3=O)ccc2N2CCN(Cc3ccccc3C)[C@@H](C)C2)o1 [Compound 253]	–	24
Cc1ccc(C(=O)Nc2cc(C(=O)NCCCN3CCCC3=O)ccc2N2CCN(Cc3ccccc3C(F)(F)F)[C@@H](C)C2)o1 [Compound 254]	–	20
Cc1ccc(C(=O)Nc2cc(C(=O)NCCCN3CCCC3=O)ccc2N2CCN(Cc3ccccc3Cl)[C@@H](C)C2)o1 [Compound 255]	–	22
Cc1ccccc1CN1CCN(c2ccc(C(=O)NCCCN3CCCC3=O)cc2NC(=O)c2coc(C3CC3)n2)C[C@@H]1C [Compound 256]	–	26
C[C@H]1CN(c2ccc(C(=O)NCCCN3CCCC3=O)cc2NC(=O)c2coc(C3CC3)n2)CCN1Cc1ccccc1C(F)(F)F [Compound 257]	–	21
Cc1ccc(C(=O)Nc2cc(C(=O)NCCCNC(=O)OC(C)(C)C)ccc2N2CCN(c3ccccc3C)CC2)o1 [Compound 258, {3-[3-[(5-Methyl-furan-2-carbonyl)-amino]-4-(4-o-tolyl-piperazin-1-yl)-benzoylamino]-propyl}-carbamic acid tert-butyl ester]	1000 to 10000	–
CC(=O)NCCCNC(=O)c1ccc(N2CCN(c3ccccc3C)CC2)c(NC(=O)c2ccc(C)o2)c1 [Compound 259, 5-Methyl-furan-2-carboxylicacid [5-(3-acetylaminopropylcarbamoyl)-2-(4-o-tolyl-piperazin-1-yl)-phenyl]-amide]	100 to 1000	–
Cc1ccc(C(=O)Nc2cc(C(=O)NCCCN3CCCC3=O)ccc2N2CCN(c3ccccc3[N+](=O)[O-])CC2)o1 [Compound 261]	1000 to 10000	–
